Experimental data taken from PubChem BioAssay (NCI).
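The compound was tested at five concentrations on cells cultured in 96-well plates, with a 48-hour exposure period. TGI denotes the concentration required for complete inhibition of growth.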

Assays:
Test in all cases: NCI-60 cell line screen, 48 h
786-0 renal = system: 786-0 renal
A498 renal = system: A498 renal
A549 NSCLC = system: A549 NSCLC
CAKI-1 renal = system: CAKI-1 renal
CCRF-CEM leukemia = system: CCRF-CEM leukemia
COLO 205 colon = system: COLO 205 colon
DU-145 prostate = system: DU-145 prostate
EKVX NSCLC = system: EKVX NSCLC
HCC-2998 colon = system: HCC-2998 colon
HCT-116 colon = system: HCT-116 colon
HCT-15 colon = system: HCT-15 colon
HL-60(TB) leukemia = system: HL-60(TB) leukemia
HOP-62 NSCLC = system: HOP-62 NSCLC
HOP-92 NSCLC = system: HOP-92 NSCLC
HT29 colon = system: HT29 colon
IGROV1 ovarian = system: IGROV1 ovarian
K-562 leukemia = system: K-562 leukemia
KM12 colon = system: KM12 colon
M14 melanoma = system: M14 melanoma
MALME-3M melanoma = system: MALME-3M melanoma
MCF7 breast = system: MCF7 breast
MDA-MB-231 breast = system: MDA-MB-231 breast
MDA-N = system: MDA-N
NCI-H23 lung = system: NCI-H23 lung
NCI-H460 lung = system: NCI-H460 lung
NCI/ADR-RES ovarian = system: NCI/ADR-RES ovarian
OVCAR-3 ovarian = system: OVCAR-3 ovarian
OVCAR-4 ovarian = system: OVCAR-4 ovarian
OVCAR-5 ovarian = system: OVCAR-5 ovarian
OVCAR-8 ovarian = system: OVCAR-8 ovarian
PC-3 prostate = system: PC-3 prostate
RPMI-8226 leukemia = system: RPMI-8226 leukemia
RXF 393 renal = system: RXF 393 renal
SF-268 CNS = system: SF-268 CNS
SF-295 CNS = system: SF-295 CNS
SF-539 CNS = system: SF-539 CNS
SK-MEL-28 melanoma = system: SK-MEL-28 melanoma
SK-MEL-5 melanoma = system: SK-MEL-5 melanoma
SNB-19 CNS = system: SNB-19 CNS
SNB-75 CNS = system: SNB-75 CNS
SR leukemia = system: SR leukemia
SW-620 colon = system: SW-620 colon
T-47D breast = system: T-47D breast
TK-10 renal = system: TK-10 renal
U251 CNS = system: U251 CNS
UACC-257 melanoma = system: UACC-257 melanoma
UACC-62 melanoma = system: UACC-62 melanoma
UO-31 renal = system: UO-31 renal
ACHN renal = system: ACHN renal
HS 578T breast = system: HS 578T breast
LOX IMVI melanoma = system: LOX IMVI melanoma
MDA-MB-435 = system: MDA-MB-435
MOLT-4 leukemia = system: MOLT-4 leukemia
NCI-H226 lung = system: NCI-H226 lung
SK-MEL-2 melanoma = system: SK-MEL-2 melanoma
SK-OV-3 ovarian = system: SK-OV-3 ovarian
SN12C renal = system: SN12C renal

`O=C1C(=O)c2c(O)ccc(O)c2C(O)=C1Cl` gave a TGI (786-0 renal) greater than 100 µM, a TGI (A498 renal) greater than 100 µM and a TGI (A549 NSCLC) greater than 100 µM. For the same molecule, the TGI (CAKI-1 renal) was greater than 100 µM, the TGI (CCRF-CEM leukemia) was greater than 100 µM and the TGI (COLO 205 colon) was greater than 100 µM. The TGI (DU-145 prostate) was greater than 100 µM, the TGI (EKVX NSCLC) was greater than 100 µM and the TGI (HCC-2998 colon) was greater than 100 µM. The TGI (HCT-116 colon) was greater than 100 µM, the TGI (HCT-15 colon) was greater than 100 µM and the TGI (HL-60(TB) leukemia) was greater than 100 µM. The TGI (HOP-62 NSCLC) was greater than 100 µM, the TGI (HOP-92 NSCLC) was greater than 100 µM and the TGI (HT29 colon) was greater than 100 µM. The TGI (IGROV1 ovarian) was greater than 100 µM, the TGI (K-562 leukemia) was greater than 100 µM and the TGI (KM12 colon) was greater than 100 µM. For the same molecule, the TGI (M14 melanoma) was greater than 100 µM, the TGI (MALME-3M melanoma) was 78.3 µM and the TGI (MCF7 breast) was greater than 100 µM. It also gave a TGI (MDA-MB-231 breast) greater than 100 µM, a TGI (MDA-N) greater than 100 µM and a TGI (NCI-H23 lung) greater than 100 µM. For the same molecule, the TGI (NCI-H460 lung) was greater than 100 µM, the TGI (NCI/ADR-RES ovarian) was greater than 100 µM and the TGI (OVCAR-3 ovarian) was greater than 100 µM. It also gave a TGI (OVCAR-4 ovarian) greater than 100 µM, a TGI (OVCAR-5 ovarian) greater than 100 µM and a TGI (OVCAR-8 ovarian) greater than 100 µM. The TGI (PC-3 prostate) was greater than 100 µM, the TGI (RPMI-8226 leukemia) was greater than 100 µM and the TGI (RXF 393 renal) was greater than 100 µM. It also gave a TGI (SF-268 CNS) greater than 100 µM, a TGI (SF-295 CNS) greater than 100 µM and a TGI (SF-539 CNS) greater than 100 µM. For the same molecule, the TGI (SK-MEL-28 melanoma) was greater than 100 µM, the TGI (SK-MEL-5 melanoma) was greater than 100 µM and the TGI (SNB-19 CNS) was greater than 100 µM. It also gave a TGI (SNB-75 CNS) greater than 100 µM, a TGI (SR leukemia) greater than 100 µM and a TGI (SW-620 colon) greater than 100 µM. It also gave a TGI (T-47D breast) greater than 100 µM, a TGI (TK-10 renal) greater than 100 µM and a TGI (U251 CNS) greater than 100 µM. For the same molecule, the TGI (UACC-257 melanoma) was greater than 100 µM, the TGI (UACC-62 melanoma) was greater than 100 µM and the TGI (UO-31 renal) was greater than 100 µM.

With `Cc1nc2c([nH]c1C)c(O)cc1c3c(nc12)C(=O)CCC3` the TGI (786-0 renal) was greater than 100 µM, the TGI (A498 renal) was greater than 100 µM and the TGI (A549 NSCLC) was 14.1 µM. The TGI (ACHN renal) was greater than 100 µM, the TGI (CCRF-CEM leukemia) was greater than 100 µM and the TGI (COLO 205 colon) was 5.99 µM. For the same molecule, the TGI (DU-145 prostate) was greater than 100 µM, the TGI (EKVX NSCLC) was greater than 100 µM and the TGI (HCC-2998 colon) was 7.88 µM. It also gave a TGI (HCT-116 colon) greater than 100 µM, a TGI (HCT-15 colon) greater than 100 µM and a TGI (HL-60(TB) leukemia) greater than 100 µM. It also gave a TGI (HOP-62 NSCLC) greater than 100 µM, a TGI (HOP-92 NSCLC) greater than 100 µM and a TGI (HS 578T breast) of 83 µM. It also gave a TGI (HT29 colon) of 11.7 µM, a TGI (K-562 leukemia) greater than 100 µM and a TGI (KM12 colon) greater than 100 µM. The TGI (LOX IMVI melanoma) was greater than 100 µM, the TGI (M14 melanoma) was greater than 100 µM and the TGI (MALME-3M melanoma) was greater than 100 µM. It also gave a TGI (MCF7 breast) of 4.35 µM, a TGI (MDA-MB-231 breast) greater than 100 µM and a TGI (MDA-MB-435) of 2.05 µM. The TGI (MDA-N) was 3.1 µM, the TGI (MOLT-4 leukemia) was greater than 100 µM and the TGI (NCI-H226 lung) was greater than 100 µM. The TGI (NCI-H23 lung) was greater than 100 µM, the TGI (NCI-H460 lung) was greater than 100 µM and the TGI (NCI/ADR-RES ovarian) was greater than 100 µM. It also gave a TGI (OVCAR-3 ovarian) of 7.31 µM, a TGI (OVCAR-4 ovarian) of 45.4 µM and a TGI (OVCAR-5 ovarian) greater than 100 µM. For the same molecule, the TGI (OVCAR-8 ovarian) was 8.25 µM, the TGI (PC-3 prostate) was greater than 100 µM and the TGI (RPMI-8226 leukemia) was 7.05 µM. It also gave a TGI (RXF 393 renal) of 3.68 µM, a TGI (SF-268 CNS) of 96.2 µM and a TGI (SF-295 CNS) of 90.8 µM. The TGI (SF-539 CNS) was 13.6 µM, the TGI (SK-MEL-2 melanoma) was 8.92 µM and the TGI (SK-MEL-28 melanoma) was greater than 100 µM. It also gave a TGI (SK-MEL-5 melanoma) greater than 100 µM, a TGI (SK-OV-3 ovarian) of 38.1 µM and a TGI (SN12C renal) greater than 100 µM. The TGI (SNB-19 CNS) was greater than 100 µM, the TGI (SR leukemia) was 8.77 µM and the TGI (SW-620 colon) was greater than 100 µM. For the same molecule, the TGI (TK-10 renal) was 26.3 µM, the TGI (U251 CNS) was 20.9 µM and the TGI (UACC-257 melanoma) was greater than 100 µM. For the same molecule, the TGI (UACC-62 melanoma) was 52.6 µM and the TGI (UO-31 renal) was 84.2 µM.

With `CN(C)c1ccc(/C=c2/c3ccccc3n3c2cc(-c2ccc(Cl)cc2)[n+]3C)cc1` the TGI (A498 renal) was 3.45 µM, the TGI (A549 NSCLC) was 1.87 µM and the TGI (ACHN renal) was 1.46 µM. For the same molecule, the TGI (CAKI-1 renal) was 0.782 µM, the TGI (COLO 205 colon) was 0.211 µM and the TGI (DU-145 prostate) was 1.13 µM. The TGI (EKVX NSCLC) was 2.41 µM, the TGI (HCC-2998 colon) was 1.95 µM and the TGI (HOP-62 NSCLC) was 1.48 µM. For the same molecule, the TGI (KM12 colon) was 0.264 µM, the TGI (MDA-MB-435) was 1.18 µM and the TGI (MDA-N) was 1.23 µM. It also gave a TGI (MOLT-4 leukemia) greater than 100 µM, a TGI (NCI-H226 lung) of 1.68 µM and a TGI (NCI-H460 lung) of 0.656 µM. It also gave a TGI (NCI/ADR-RES ovarian) greater than 89.3 µM, a TGI (OVCAR-3 ovarian) of 1.34 µM and a TGI (OVCAR-4 ovarian) of 2.51 µM. For the same molecule, the TGI (OVCAR-5 ovarian) was 2.33 µM, the TGI (PC-3 prostate) was 1.01 µM and the TGI (RPMI-8226 leukemia) was 0.566 µM. The TGI (SF-295 CNS) was 1.77 µM, the TGI (SF-539 CNS) was 0.748 µM and the TGI (SK-MEL-2 melanoma) was 0.845 µM. The TGI (SK-MEL-28 melanoma) was 1.9 µM, the TGI (SK-MEL-5 melanoma) was 0.362 µM and the TGI (SK-OV-3 ovarian) was 1.45 µM. For the same molecule, the TGI (SNB-19 CNS) was 1.33 µM, the TGI (SW-620 colon) was 1.31 µM and the TGI (T-47D breast) was 1.38 µM. It also gave a TGI (U251 CNS) of 1.09 µM and a TGI (UACC-257 melanoma) of 1.08 µM.
